# From patent publication US20100190735A1, “Mouthwash and Method of Using Same for the Treatment of Mucositis or Stomatitis” (priority 2006, published 2010)
# Structures can show the parent of a compound that is named as a salt. Where two headings read alike, the source gives them in different places.
# Assays:
# [1] = in H2O, cited from earlier work
# [2] = Storage stability of mouth rinse formulation B8: potency of the actives by HPLC; assay type: physicochemical
# Text: (§1) Quantification of the respective ingredients was done using high performance liquid chromatography (HPLC). A difference in calculated quantity of less than 5% from the intial formulation (i.e. time=0) amount was considered a “pass”, that is, indicative of minimal degradation. The relative standard deviation for the HPLC calculations was 3%.
# [3] = Storage stability of formulation B8: preservative assay by HPLC; assay type: physicochemical
# Text: as §1
# [4] = formulation B8, 2 months at 40° C.
# [5] = formulation B8, 2 months at 40° C., 90 to 110% of label claim, less than 5% change
# [6] = formulation B8, 2 months at room temperature
# [7] = formulation B8, 2 months at room temperature, 90 to 110% of label claim, less than 5% change
# [8] = formulation B8, 3 months at 40° C.
# [9] = formulation B8, 3 months at 40° C., 90 to 110% of label claim, less than 5% change
# [10] = formulation B8, 3 months at room temperature
# [11] = formulation B8, 3 months at room temperature, 90 to 110% of label claim, less than 5% change
# [12] = formulation B8, 4 months at 40° C.
# [13] = formulation B8, 4 months at 40° C., 90 to 110% of label claim, less than 5% change
# [14] = formulation B8, 4 months at room temperature, 90 to 110% of label claim, less than 5% change
# [15] = formulation B8, 12 months at fridge 4° C.
# [16] = formulation B8, 12 months at fridge 4° C., 90 to 110% of label claim, less than 5% change
# [17] = formulation B8, 12 months at room temperature
# [18] = formulation B8, 12 months at room temperature, 90 to 110% of label claim, less than 5% change
# [19] = formulation B8, time = 0, limits 90 to 110% of label claim
smiles,measurement,setting,value
"C[C@@H]1C[C@H]2[C@@H]3CCC4=CC(=O)C=C[C@]4(C)[C@@]3(F)[C@@H](O)C[C@]2(C)[C@@]1(O)C(=O)COP(=O)(O)O [Dexamethasone sodium phosphate, Dexamethasone 21-phosphate disodium salt]",Solubility (Notes),[1]; in words,H2O soluble
CN(C)CCOC(c1ccccc1)c1ccccc1 [Diphenhydramine HCl],Potency (of label claim),[2]; [4],100.2%
same,Potency Pass/fail,[2]; [5],Pass (A difference in calculated quantity of less than 5% from the intial formulation (i.e. time=0) amount was considered a “pass”)
same,Potency (of label claim),[2]; [6],100.8%
same,Potency Pass/fail,[2]; [7],Pass (A difference in calculated quantity of less than 5% from the intial formulation (i.e. time=0) amount was considered a “pass”)
same,Potency (of label claim),[2]; [8],101.7%
same,Potency Pass/fail,[2]; [9],Pass (A difference in calculated quantity of less than 5% from the intial formulation (i.e. time=0) amount was considered a “pass”)
same,Potency (of label claim),[2]; [10],101.85%
same,Potency Pass/fail,[2]; [11],Pass (A difference in calculated quantity of less than 5% from the intial formulation (i.e. time=0) amount was considered a “pass”)
same,Potency (of label claim),[2]; [12],100.1%
same,Potency Pass/fail,[2]; [13],Pass (A difference in calculated quantity of less than 5% from the intial formulation (i.e. time=0) amount was considered a “pass”)
same,Potency Pass/fail,[2]; [14],Pass (A difference in calculated quantity of less than 5% from the intial formulation (i.e. time=0) amount was considered a “pass”)
same,Potency (of label claim),[2]; [15],102.4%
same,Potency Pass/fail,[2]; [16],Pass (A difference in calculated quantity of less than 5% from the intial formulation (i.e. time=0) amount was considered a “pass”)
same,Potency (of label claim),[2]; [17],103.0%
same,Potency Pass/fail,[2]; [18],Pass (A difference in calculated quantity of less than 5% from the intial formulation (i.e. time=0) amount was considered a “pass”)
same,Potency (of label claim),"[2]; formulation B8, time = 0",100.6%
same,Potency Pass/fail,[2]; [19],Pass (A difference in calculated quantity of less than 5% from the intial formulation (i.e. time=0) amount was considered a “pass”)
CCN(CC)CC(=O)Nc1c(C)cccc1C [Lidocaine HCl],Potency (of label claim),[2]; [4],98.1%
same,Potency Pass/fail,[2]; [5],Pass (A difference in calculated quantity of less than 5% from the intial formulation (i.e. time=0) amount was considered a “pass”)
same,Potency (of label claim),[2]; [6],99.7%
same,Potency Pass/fail,[2]; [7],Pass (A difference in calculated quantity of less than 5% from the intial formulation (i.e. time=0) amount was considered a “pass”)
same,Potency (of label claim),[2]; [8],102.15%
same,Potency Pass/fail,[2]; [9],Pass (A difference in calculated quantity of less than 5% from the intial formulation (i.e. time=0) amount was considered a “pass”)
same,Potency (of label claim),[2]; [10],101.8%
same,Potency Pass/fail,[2]; [11],Pass (A difference in calculated quantity of less than 5% from the intial formulation (i.e. time=0) amount was considered a “pass”)
same,Potency (of label claim),[2]; [12],102.9%
same,Potency Pass/fail,[2]; [13],Pass (A difference in calculated quantity of less than 5% from the intial formulation (i.e. time=0) amount was considered a “pass”)
same,Potency Pass/fail,[2]; [14],Pass (A difference in calculated quantity of less than 5% from the intial formulation (i.e. time=0) amount was considered a “pass”)
same,Potency (of label claim),[2]; [15],101.4%
same,Potency Pass/fail,[2]; [16],Pass (A difference in calculated quantity of less than 5% from the intial formulation (i.e. time=0) amount was considered a “pass”)
same,Potency (of label claim),[2]; [17],101.4%
same,Potency Pass/fail,[2]; [18],Pass (A difference in calculated quantity of less than 5% from the intial formulation (i.e. time=0) amount was considered a “pass”)
same,Potency (of label claim),"[2]; formulation B8, time = 0",100.4%
same,Potency Pass/fail,[2]; [19],Pass (A difference in calculated quantity of less than 5% from the intial formulation (i.e. time=0) amount was considered a “pass”)
COC(=O)c1ccc(O)cc1 [Methyl paraben],Preservative assay,[3]; [4],95%
same,Preservative assay,[3]; [6],97.6%
same,Preservative assay,[3]; [8],95.7%
same,Preservative assay,[3]; [10],100.1%
same,Preservative assay,[3]; [12],97.1%
same,Preservative assay,[3]; [17],Methyl P - 98.2%
same,Preservative assay,"[3]; formulation B8, time = 0",paraben: 100.8%
C[C@@H]1[C@H](O)[C@@H](C)/C=C/C=C/CC/C=C/C=C/C=C/C=C/C(O[C@H]2O[C@H](C)[C@@H](O)[C@H](N)[C@@H]2O)CC2O[C@](O)(CC(O)C(O)CCC(O)CC(O)CC(O)CC(=O)O[C@H]1C)CC(O)C2C(=O)O (stereo partly drawn) [Nystatin],Potency (of label claim),[2]; [4],98.4%
same,Potency Pass/fail,[2]; [5],Fail
same,Potency (of label claim),[2]; [6],106.8%
same,Potency Pass/fail,[2]; [7],Pass (A difference in calculated quantity of less than 5% from the intial formulation (i.e. time=0) amount was considered a “pass”)
same,Potency (of label claim),[2]; [8],88.8%
same,Potency Pass/fail,[2]; [9],Fail
same,Potency (of label claim),[2]; [10],106%
same,Potency Pass/fail,[2]; [11],Pass (A difference in calculated quantity of less than 5% from the intial formulation (i.e. time=0) amount was considered a “pass”)
same,Potency (of label claim),[2]; [12],92.4%
same,Potency Pass/fail,[2]; [13],Fail
same,Potency (of label claim),"[2]; formulation B8, 4 months at room temperature",105.3%
same,Potency Pass/fail,[2]; [14],Pass (A difference in calculated quantity of less than 5% from the intial formulation (i.e. time=0) amount was considered a “pass”)
same,Potency (of label claim),[2]; [15],101.7%
same,Potency Pass/fail,[2]; [16],Pass (A difference in calculated quantity of less than 5% from the intial formulation (i.e. time=0) amount was considered a “pass”)
same,Potency (of label claim),[2]; [17],109.6%
same,Potency Pass/fail,[2]; [18],Pass (A difference in calculated quantity of less than 5% from the intial formulation (i.e. time=0) amount was considered a “pass”)
same,Potency (of label claim),"[2]; formulation B8, time = 0",108.5%
same,Potency Pass/fail,[2]; [19],Pass (A difference in calculated quantity of less than 5% from the intial formulation (i.e. time=0) amount was considered a “pass”)
same,Solubility (Notes),[1]; in words,slightly soluble-
same,Solubility (Notes),[1],4 mg/ml in H2O
CCCOC(=O)c1ccc(O)cc1 [Propyl paraben],Preservative assay,[3]; [4],99.1%
same,Preservative assay,[3]; [6],99.3%
same,Preservative assay,[3]; [8],99.4%
same,Preservative assay,[3]; [10],100.4%
same,Preservative assay,[3]; [12],99.2%
same,Preservative assay,[3]; [17],Propul P - 99.1%
same,Preservative assay,"[3]; formulation B8, time = 0",paraben: 99.1%
